From patent US12252712B2, “Use of engineered liver tissue constructs for modeling liver disorders” (Organovo, Inc., priority 2017, dated 2025)

Key:
Assay type in all cases: cell-based, human
[1] = tested on: bioprinted liver tissue construct; test: Steatosis induction in bioprinted liver tissue constructs (H&E, PLIN-5, Oil Red O)
Excerpt: 3D bioprinted liver tissues comprised of cryopreserved primary human hepatocytes (Life Technologies, Carlsbad, CA, USA), hepatic stellate cells (ScienCell; Carlsbad, CA, USA), and HUVEC cells (Becton Dickinson; Tewksbury, MA, USA) were bioprinted directly into 24-well Transwell plates (FIG. 20A) using the Organovo NovoGen Bioprinter Instrument (Organovo, San Diego, CA, USA).
Briefly, hepatic stellate cells and HUVEC cells were propagated per the manufacturer's instructions prior to tissue fabrication. Cryopreserved hepatocytes were thawed and prepared for use per the manufacturer's instructions. Separate high density bioinks comprising parenchymal cells (100% cellular paste, generated via compaction having hepatocyte cells) or nonparenchymal cells (150e6 cells/mL of endothelial cells and hepatic stellate cells formulated in hydrogel) were prepared and loaded into separate heads of the NovoGen Bioprinter Instrument within a standard biosafety cabinet. A computer script was then executed to deposit the bioinks in a two-compartment planar geometry (2 mm^2×0.5 mm) onto the membranes of standard 24-well 0.4 μm transwell culture inserts (Corning, Tewksbury, MA USA) via continuous deposition microextrusion with the non-parenchymal cells comprising the border regions of each compartment and the parenchymal cells filling each compartment. Following fabrication, the tissues were fed daily with 600 μL of 3D Liver Tissue Media, consisting of DMEM supplemented with Primary Hepatocyte Maintenance Supplements (Life Technologies, Carlsbad, CA, USA) and EGM-2 (Lonza, Basel, Switzerland), and incubated at 37° C. under humidified atmospheric conditions supplemented with 5% CO2. Tissues were allowed to mature in culture for at least three days following fabrication prior to initiation of experimentation, and were substantially free of pre-formed scaffold at the time of use. For the one month timecourse, tissues were fed daily for a total of 28 days post-fabrication.
The bioprinted liver tissue construct of Example 6 was treated with nutrient-mediated accumulation to induce a steatosis phenotype. Specifically, to induce steatosis, a first liver tissue construct was treated with palmitic acid (PA) of varying concentrations (200 uM PA or 500 uM PA) daily for 3 weeks in the presence of high glucose media (DMEM-HG). A second liver tissue construct was treated with a 5% and 10% lipid mix of oleic acid (OC) to palmitic acid (PA) at a ratio of 2:1 daily for 3 weeks in the presence of high glucose media (DMEM-HG). Optionally, insulin or genipin (1 uM or 5 uM) can be used to stimulate fatty acid uptake into hepatocytes and enhance the fatty phenotype. […]
The technical challenge is to make a 3D, bioprinted liver tissue construct having the disorder without adversely affecting hepatocyte function or tissue health (albumin, LOH activity, ALT), which most closely recapitulates the benign nature of steatosis commonly observed in clinical steatosis. Tissue health were assessed at 7 day intervals using biochemical assays that measure hepatocellular function (i.e., albumin) and injury (i.e., LOH and ALT) with n≥5 per treatment group. Greater than 5% fatty infiltrate into hepatocytes is considered steatotic; therefore, morphometric and biochemical assays were conducted to quantify hepatic lipid content. Tissue morphology and extracellular matrix (ECM) deposition were assessed using H&E and Trichrome staining, respectively, at 7 day intervals. […]

[2] = tested on: immune competent bioprinted liver tissue constructs; test: NASH induction in bioprinted liver tissue constructs, histology (H&E, trichrome, desmin/α-SMA, CK18)
Experimental: Kupffer cells (KCs) were added to the parenchymal region in the bioprinted liver tissue construct of Example 6.
Separate high density bioinks comprising parenchymal cells (100% cellular paste, generated via compaction having human hepatocyte cells and human Kupffer cells) or nonparenchymal cells (150e6 cells/mL of endothelial cells and hepatic stellate cells formulated in hydrogel) were prepared and loaded into separate heads of the NovoGen Bioprinter™ Instrument within a standard biosafety cabinet. A computer script was then executed to deposit the bioinks in a two-compartment planar geometry (2 mm^2×0.5 mm) onto the membranes of standard 24-well 0.4 μm transwell culture inserts (Corning, Tewksbury, MA USA) via continuous deposition microextrusion with the non-parenchymal cells comprising the border regions of each compartment and the parenchymal cells filling each compartment.
Here, the liver tissue construct having KCs was treated with 100 μg/ml of LPS and 500 uM palmitic acid daily for 21 days. LPS was used to activate the KCs in order to initiate inflammation. In turn, activated KCs release factors that activate hepatic stellate cells, which initiate fibrosis. […] Untreated tissues with and without KCs were used as controls.

bioprinted liver tissues = test: Drug safety: alanine transferase (ALT) in culture medium of bioprinted liver tissues; details: diseased (NASH-induced with 12.5 mM fructose and 500 uM PA) tissue treated with OCA versus non-diseased tissue
Experimental: The assessment of drug safety was also investigated using the bioprinted liver tissue constructs. Non-diseased (vehicle-treated) or diseased (NASH-induced with 12.5 mM fructose and 500 uM PA) bioprinted liver tissues were treated with OCA, followed by measurement of alanine transferase (ALT) in the culture medium, a liver enzyme elevated with hepatocellular injury. […] Significance was determined by One-way ANOVA with Dunnets Multiple Comparisons Test, with the increase in ALT levels for diseased tissue following OCA treatment having a P<0.0001 as compared to diseased tissue without OCA treatment. This provides a proof of concept for application of the NASH model in assessment of differential toxicity.

[3] = tested on: bioprinted liver tissue constructs; test: Caspase cleaved CK18 fragments (apoptosis) in bioprinted liver tissue constructs
[4] = tested on: bioprinted hepatic stellate cell tissues; test: Stimulation of bioprinted hepatic stellate cell tissues with TGF-β1
Experimental: Cylindrical bio-ink comprising relevant heterogeneous (i.e., polytypic) cell populations were prepared. Physiologically-relevant populations (e.g., hepatic stellate cells (hSC) and human aortic endothelial cells (EC)) of cells were combined at specific ratios to generate proper bio-ink. Cells were maintained and propagated under standard laboratory conditions and cells were cultured in media either purchased from the same vendor as the cells, or media comprising components typically found in the primary literature to be conducive to standard cell culture practices for those particular cell types. Cell processing for bio-ink preparation was as follows: briefly, cells were liberated from standard tissue culture plastic by washing with cation-free phosphate buffered saline (PBS) and then exposed to 0.1-0.05% trypsin (Invitrogen). Liberated cells were then washed in serum-containing media, collected, counted, and combined in an appropriate ratio for the stimulation assay or experiment being conducted, and pelleted by centrifugation. Supernatant was then removed and the cell pellet was aspirated into a glass microcapillary, which was then submerged in complete media for approximately 15 to 20 minutes. This cylindrical bio-ink structure was then extruded into a non cell-adherent hydrogel mold, containing linear channels and held for 2 to 18 hours. Cylindrical bio-ink containing hSC: EC was then used to fabricate bioprinted tissue constructs and maintained and/or matured in a humidified chamber. Tissue segments were fabricated with initial dimensions of 1.25 mm×8 mm×0.25 mm (W×L×H). […]
The bioprinted neotissues were then submerged in serum-containing complete cell culture media and placed in a standard humidified chamber, supplemented with 5% CO2 for maturation. […] The bioprinted tissues were evaluated for characteristics such as, but not limited to for tissue morphology, cell organization, extracellular matrix production, cell proliferation, cell viability, and construct integrity. […]

[5] = tested on: bioprinted liver tissue construct with Kupffer cells; test: Inflammatory cytokine release from bioprinted liver tissue constructs; details: co-treatment of LPS at 1 ug/mL with NASH induction, 14 days (FIG. 33)
Experimental: Tissue health were assessed at 7 day intervals using biochemical assays on spent media that measure hepatocellular function as outlined in Aim 1 (n≥5/group). Histological endpoints used to assess tissue morphology and composition (H&E, CD31, Desmin, E-cadherin, Albumin), ECM deposition (trichrome), hepatic stellate cell activation (desmin, a-smooth muscle actin ratio), lipid vacuoles (perilipin) and lipid content (Oil red 0) were measured at weekly intervals. In order to determine baseline cytokine production in response to lipid treatment, inflammatory cytokine release were measured at 7 day intervals via chemiluminescence with the V-Plex Pro-Inflammatory Panel (Meso Scale Discovery, Rockville, MD), which measures TNF-α, IL-113, IL-6, IL-8, IL-4, IL-2, IL-13, IL-12p70, IL-10, and interferon-y (IFN-y).

COC(=O)C1=CO[C@@H](O)[C@@H]2C(CO)=CC[C@H]12 [Genipin]
lipid accumulation fold change (Oil Red O, Image J) ([1]; 21 days, 5 μM Genipin added to 500 μM PA, vs 500 μM PA alone): did not further increase lipid accumulation

CCCCCCCC/C=C\CCCCCCCC(=O)O [OA, Oleic Acid]
fibrosis (TCM) ([2]; 7 days, 1 mM (FIG. 28A)): less fibrosis
macrovesicular steatosis (H&E) ([2]; 7 days, 1 mM (FIG. 28A)): increased incidence of macrovesicular steatosis
lipid droplet (LD) size ([1]; 14 days of treatment (FIG. 27)): larger sizes of LD's

CC[C@H]1[C@@H](O)[C@@H]2[C@H](CC[C@]3(C)[C@@H]([C@H](C)CCC(=O)O)CC[C@@H]23)[C@@]2(C)CC[C@@H](O)C[C@@H]12 [OCA, Obeticholic Acid]
alanine transferase (ALT) in the culture medium (bioprinted liver tissues): increased ALT

O=C(CO)[C@@H](O)[C@H](O)[C@H](O)CO [fructose]
fibrosis (TCM) ([2]; 14 days, fructose 20 mM, OA or OA:PA 0.5 mM, vs controls (FIG. 32)): increased fibrosis
fibrosis (TCM) ([2]; 21 days, fructose 12.5 mM, PA 0.5 mM, vs controls (FIG. 31)): increased fibrosis

CCCCCCCCCCCCCCCC(=O)O [palmitic acid]
fibrosis (TCM) ([2]; 7 days, 1 mM (FIG. 28A)): increased incidence
putative ballooned hepatocytes (H&E) ([2]; 7 days, 1 mM (FIG. 28A)): increased incidence of putative ballooned hepatocytes
steatotic phenotype (incidence and size of lipid droplets, PLIN 5 staining) ([1]; 200 μM and 500 μM, daily for 21 days, vs untreated controls): induces a steatotic phenotype
lipid accumulation fold change (Oil Red O, Image J) ([1]; 21 days, 500 μM vs 200 μM (FIG. 25B)): greater accumulation of lipid droplets
lipid accumulation (Oil Red O, morphometric quantification) ([1]; 21 days, 200 and 500 uM, vs controls (FIG. 22)): significant dose-dependent increase in lipid accumulation
caspase cleaved cytokine (CK) 18 fragments ([3]; 7 days, 1 mM, vs all other FFA treatments and untreated controls (FIG. 28B)): significantly higher levels
cytotoxicity ([3]; FIG. 28(B)): increased cytotoxicity

TGF-β1: cytokine used to elicit a tissue-specific response
cell density (Trichrome) ([4]; 0-50 ng/mL (FIG. 15)): dramatic decreases in cell density
collagen deposition and construct size (Trichrome) ([4]; 0-50 ng/mL (FIG. 15)): increases in collagen deposition and construct size
tissue outgrowth formation (gross observation) ([4]; increasing concentrations 0, 1, 10, 50 ng/mL (FIG. 15)): increases in tissue outgrowth formation

lipopolysaccharide [LPS]
cytokine levels (IL-10, IL-1β, TNF-α, IL-6) [5]: significantly increased above NASH induction only
putative hepatocellular ballooning ([2]; 21 days of PA and fructose (12.5 mM) with constitutive 10 ug/mL treatment, vs controls (FIG. 43)): also observed
fibrosis and hepatocellular ballooning ([2]; 21 days of PA and fructose (12.5 mM) with constitutive 100 ug/mL LPS (FIG. 43)): high degree of fibrosis with putative hepatocellular ballooning
